Test results from the NIST ThermoML archive (doi:10.1021/je900131q).
Several values for one entry are separate records, joined by “and”; a condition that tells them apart may be missing. Identical values can stand only once. Numbers after ± are expanded uncertainties.

Settings: Fluid (supercritical or subcritical phases); for mass density: Buoyancy - hydrostatic balance with magnetic suspension - one sinker; for viscosity: Vibrating wire viscometer

[He] [helium]
Settings	mass density	viscosity [mPa·s]
293.16 K, 6273.2 kPa	9.9551 ± 0.022 kg/m3	0.01957 ± 0.00012
293.16 K, 7587 kPa	11.953 ± 0.027 kg/m3	0.01957 ± 0.00012
293.16 K, 14320 kPa	21.907 ± 0.049 kg/m3	0.01959 ± 0.00012
293.16 K, 22974 kPa	33.812 ± 0.074 kg/m3	0.01968 ± 0.00012
293.16 K, 25225 kPa	36.795 ± 0.081 kg/m3	0.01971 ± 0.00012
293.16 K, 30149 kPa	43.152 ± 0.095 kg/m3	0.0198 ± 0.00012
293.16 K, 30150 kPa	43.152 ± 0.095 kg/m3	0.0198 ± 0.00012
293.17 K, 3742.6 kPa	5.9981 ± 0.014 kg/m3	0.01958 ± 0.00012
293.17 K, 6273.4 kPa	9.9566 ± 0.022 kg/m3	0.01957 ± 0.00012
293.17 K, 6273.7 kPa	9.9551 ± 0.022 kg/m3	0.01957 ± 0.00012
293.17 K, 7587.3 kPa	11.953 ± 0.027 kg/m3	0.01957 ± 0.00012
293.17 K, 8869.8 kPa	13.892 ± 0.031 kg/m3	0.01957 ± 0.00012
293.17 K, 10198 kPa	15.951 ± 0.036 kg/m3 and 15.945 ± 0.036 kg/m3	0.01955 ± 0.00012
293.17 K, 12237 kPa	18.892 ± 0.042 kg/m3	0.01958 ± 0.00012
293.17 K, 18562 kPa	27.894 ± 0.062 kg/m3	0.01962 ± 0.00012
293.18 K, 2466.6 kPa	3.9663 ± 0.0083 kg/m3	0.01959 ± 0.00012
293.18 K, 8870.2 kPa	13.894 ± 0.031 kg/m3	0.01957 ± 0.00012
293.18 K, 10228 kPa	15.928 ± 0.036 kg/m3	0.01958 ± 0.00012
293.18 K, 12237 kPa	18.892 ± 0.042 kg/m3	0.01958 ± 0.00012
293.18 K, 16436 kPa	24.919 ± 0.055 kg/m3	0.01961 ± 0.00012
293.18 K, 18563 kPa	27.897 ± 0.062 kg/m3	0.01964 ± 0.00012
293.18 K, 22975 kPa	33.81 ± 0.074 kg/m3	0.01968 ± 0.00012
293.19 K, 16436 kPa	24.919 ± 0.055 kg/m3	0.01961 ± 0.00012
293.19 K, 18564 kPa	27.893 ± 0.061 kg/m3	0.01963 ± 0.00012
293.2 K, 20756 kPa	30.909 ± 0.068 kg/m3	0.01965 ± 0.00012
293.2 K, 20757 kPa	30.907 ± 0.068 kg/m3	0.01966 ± 0.00012
293.21 K, 30174 kPa	43.24 ± 0.095 kg/m3	0.0198 ± 0.00012
293.21 K, 30175 kPa	43.241 ± 0.095 kg/m3 and 43.243 ± 0.095 kg/m3	0.01979 ± 0.00012
293.22 K, 30175 kPa	43.244 ± 0.095 kg/m3	0.0198 ± 0.00012
293.24 K, 1220.6 kPa	1.9766 ± 0.005 kg/m3	0.01959 ± 0.00012
293.25 K, 1220.7 kPa	1.978 ± 0.005 kg/m3	0.0196 ± 0.00012
293.25 K, 1827.1 kPa	2.949 ± 0.0064 kg/m3	0.01959 ± 0.00012
293.26 K, 613.3 kPa	0.99551 ± 0.003 kg/m3	0.0196 ± 0.00012
293.26 K, 1827.3 kPa	2.9512 ± 0.007 kg/m3	0.01959 ± 0.00012
293.27 K, 489.97 kPa	0.79365 ± 0.0028 kg/m3	0.0196 ± 0.00012
293.27 K, 490.02 kPa	0.79727 ± 0.0028 kg/m3	0.0196 ± 0.00012
293.27 K, 613.45 kPa	0.99623 ± 0.0032 kg/m3	0.0196 ± 0.00012
293.28 K, 121.3 kPa	0.19968 ± 0.0024 kg/m3	0.01954 ± 0.00012
293.28 K, 121.33 kPa	0.19895 ± 0.0024 kg/m3	0.01955 ± 0.00012
293.28 K, 244.14 kPa	0.39719 ± 0.0024 kg/m3	0.01958 ± 0.00012
293.28 K, 244.19 kPa	0.39791 ± 0.0024 kg/m3	0.01958 ± 0.00012
293.28 K, 366.66 kPa	0.59687 ± 0.0026 kg/m3	0.01959 ± 0.00012
293.28 K, 366.7 kPa	0.59542 ± 0.0026 kg/m3	0.01959 ± 0.00012
